Values of other authors as cited in patent publication US20050003341A1, “Drug discovery assays based on the biology of atherosclerosis, cancer, and alopecia” (priority 2003, published 2005).
Where two headings read alike, the source gives them in different places.

How the values were obtained:
[1] = test system: ERK
[2] = test system: papilla cells; settings: 14 days; testosterone 345 nM, DHT 345 mM as printed
[3] = test system: AR mRNA; settings: LNCaP cells (Lin 2001)
[4] = test system: ACE; settings: after 6 weeks
[5] = test system: ACE; settings: zofenopril 0.05 or 1, captopril 5, enalapril 0.5 mg/kg/day
[6] = test system: TF; settings: cultured monocytes
[7] = test system: TF; settings: mononuclear leukocytes exposed to endotoxin
[8] = test system: hamsters
[9] = test system: ACE; settings: 5 or 10 mg/day vs placebo, 4 years
[10] = test system: ACE
[11] = test system: ACE; remark: listed apart in the source
[12] = test system: Moloney murine leukemia virus (MMuLV); Rous sarcoma virus (RSV); settings: chick embryo fibroblasts
[13] = test system: TF antigen; settings: starting on day 3, significant on day 28
[14] = test system: ACE; settings: 5 mg/day vs placebo, 4 years
[15] = test system: TF mRNA; settings: obese mice, 10 to 20 weeks of age
[16] = test system: AR mRNA; settings: 50 μg/ml, 4 hours

For `C[C@]12CC[C@H]3[C@@H](CCC4=CC(=O)CC[C@@]43C)[C@@H]1CC[C@@H]2O` [Testosterone, testosterone], the ERK phosphorylation ([1]; a variety of cells, cited studies) is listed as “increase” and the papilla cell proliferation [2] is listed as “significantly decreased”.

In the case of IL-6: interleukin 6, the ERK phosphorylation ([1]; LNCaP cells (Chen T 1999)) is given as “increased” and the “AR mRNA” value [3] is given as “decreased”.

In the case of `C[C@H](CS)C(=O)N1CCC[C@H]1C(=O)O` [captopril], the “number of subendothelial macrophage derived foam cells” value ([4]; week 4: 87±9, p<0.05) is listed as 52±9 cell/mm^2, the “average size of a foam cell” value ([4]; week 4: 113±8, p<0.05) is listed as 89±5 μm^2 and the “area of fatty streak” value ([4]; week 4: 125±18, p<0.05) is listed as 55±12 μm2×1,000. For the same molecule, the “area of extracellular lipid particles” value ([4]; week 4: 144±27, not significant) was 157±36 μm2×1,000, the “total lesion area compared to placebo” value [5] was “significantly decreased” and the “TF antigen and mRNA” value [6] was “decreased”. For the same molecule, the “increase in TF mRNA” value [7] was “inhibited”, the “cell size of macrophage derived foam cells” value ([8]; controls 130±5) was “did not change” and the heart rate ([8]; controls 376±6) was 348+6 beats/min. For the same molecule, the “decrease in fatty streak area” value ([8]; p=0.092 pravastatin, p=0.056 captopril) was 35%.

For `CCOC(=O)[C@H](CCc1ccccc1)N[C@@H](C)C(=O)N1[C@H](C(=O)O)C[C@@H]2CCC[C@@H]21` [ramipril], the “changes in thickness of the common carotid artery wall, or carotid plaque height” value [9] is listed as “no significant difference”, the “rate of death from cardiovascular causes” value ([10]; 10 mg/day, 4.5 years, placebo 8.1%) is listed as 6.1% and the “rate of cardiac arrest” value ([10]; placebo 1.3%) is listed as 0.8%. For the same molecule, the rate of stroke ([10]; placebo 4.9%) was 3.4%, the “rate of complications related to diabetes” value ([10]; placebo 7.6%) was 6.4% and the “rate of heart failure” value ([10]; placebo 11.6%) was 9.1%. The “rate of death from any cause” value ([10]; placebo 12.2%) was 10.4%, the “rate of myocardial infarction” value ([10]; placebo 12.3%) was 9.9% and the “rate of revascularization procedures” value ([10]; placebo 18.8%) was 16.3%. For the same molecule, the “RR, cardiac arrest” value ([10]; vs placebo) was 0.62, the “RR, complications related to diabetes” value ([10]; vs placebo) was 0.84 and the “RR, death from any cause” value ([10]; vs placebo) was 0.84. The “RR, death from cardiovascular causes” value ([10]; vs placebo) was 0.74, the “RR, heart failure” value ([10]; vs placebo) was 0.77 and the “RR, myocardial infarction” value ([10]; vs placebo) was 0.80. The “RR, revascularization procedures” value ([10]; vs placebo) was 0.85, the “RR, stroke” value ([10]; vs placebo) was 0.68 and the “progression slope of the mean maximum carotid intimal medial thickness (IMT)” value ([11]; 10 mg/day, placebo 0.0217±0.0027, p=0.0033) was 0.0137±0.0024 mm/year. For the same molecule, the “decrease in progression of carotid intima media thickness” value ([11]; at 4.5 years) was 0.008 mm per year.

In the case of `C/C=C/C/C=C/CCC(=O)[C@H]1O[C@H]1C(N)=O` [cerulenin], the “Rous sarcoma virus (RSV) production” value [12] is given as “inhibited”.

In the case of `CCCCc1nc(Cl)c(CO)n1Cc1ccc(-c2ccccc2-c2nn[nH]n2)cc1` [losartan], the “effect on plasma TF antigen levels” value [13] is listed as “negative effect”.

For `CCOC(=O)[C@H](CCc1ccccc1)N[C@@H](C)C(=O)N1CCC[C@H]1C(=O)O` [enalapril], the “total lesion area compared to placebo” value [5] is listed as “no significant decrease” and the “changes in mean absolute diameter, minimum absolute diameter, percent diameter stenosis” value [14] is listed as “no significant difference”.

In the case of `CCOC(=O)[C@H](CCc1ccccc1)N[C@H]1CS[C@H](c2cccs2)CN(CC(=O)O)C1=O` [temocapril], the “increase in TF mRNA” value [15] is listed as “attenuated”.

For `C[C@@H]1C[C@@H]([C@H](O)CC2CC(=O)NC(=O)C2)C(=O)[C@@H](C)C1` [cycloheximide], the “increase in AR mRNA” value [16] is given as 1.7 ± 0.4 fold.
